Earlier results as cited in US20060233843A1, “Treatment of psychosis with a muscarinic m1 receptor ectopic activator” (priority 2003, published 2006).

Molecular target: T1, M1 receptor, residue 381 mutated from tyrosine to alanine (Homo sapiens, UniProt P11229, Y381A)
T1 sequence (P11229 1-460 Y381A): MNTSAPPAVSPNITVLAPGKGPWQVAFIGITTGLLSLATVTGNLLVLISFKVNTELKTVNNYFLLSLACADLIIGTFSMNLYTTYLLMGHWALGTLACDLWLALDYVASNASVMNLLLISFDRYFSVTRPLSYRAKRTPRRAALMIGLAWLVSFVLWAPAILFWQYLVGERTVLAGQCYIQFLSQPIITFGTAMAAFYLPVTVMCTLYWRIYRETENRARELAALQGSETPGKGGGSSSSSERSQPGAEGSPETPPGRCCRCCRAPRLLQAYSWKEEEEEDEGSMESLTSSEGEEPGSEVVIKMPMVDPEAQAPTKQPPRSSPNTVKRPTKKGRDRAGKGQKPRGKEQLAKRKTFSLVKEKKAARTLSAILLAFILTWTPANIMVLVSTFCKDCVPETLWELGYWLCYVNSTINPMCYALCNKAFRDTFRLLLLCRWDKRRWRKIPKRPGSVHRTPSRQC
Details: M1 receptor Y381A mutant versus wild type

| increase of ectopic agonist potency by mutation of residue 381 from tyrosine to alanine [fold] | effect of mutation of residue 381 from tyrosine to alanine on pharmacology | SMILES |
| --- | --- | --- |
| 8 |  | Clc1ccc2c(c1)N=C(N1CCNCC1)c1ccccc1N2 [N-desmethylclozapine, Desmethylclozapine] |
|  | not affecting | CCCCC1CCN(CCCC(=O)c2ccccc2C)CC1 [AC-42] |
